The values that follow come from ChEMBL document CHEMBL1136602 (Bioorg Med Chem Lett, 2003).

The target of one assay is Sigma 2 receptor. In words: Binding affinity towards Sigma-2 receptor.
In assay [1] the target is Sigma non-opioid intracellular receptor 1 (Homo sapiens, UniProt Q99720). The assay is described as follows: Binding affinity towards Sigma-1 receptor.
The test system of assay [2] is Mus musculus. In words: Anticocaine activity was assessed through attenuation of convulsions caused by the intraperitoneal administration of cocaine 60 mg/kg in mice. It is filed as functional.
The subject of assay [3] is Mus musculus. In words: Anticocaine activity was assessed through attenuation of convulsions caused by the intraperitoneal administration of cocaine 60 mg/kg in mice; Agonist activity exacerbated the convulsive effects of cocaine. More on the design: dose 60 mg/kg. It is filed as functional, organism-based. The settings on record: filed as agonist.

Chain of Sigma non-opioid intracellular receptor 1 (Q99720 whole entry): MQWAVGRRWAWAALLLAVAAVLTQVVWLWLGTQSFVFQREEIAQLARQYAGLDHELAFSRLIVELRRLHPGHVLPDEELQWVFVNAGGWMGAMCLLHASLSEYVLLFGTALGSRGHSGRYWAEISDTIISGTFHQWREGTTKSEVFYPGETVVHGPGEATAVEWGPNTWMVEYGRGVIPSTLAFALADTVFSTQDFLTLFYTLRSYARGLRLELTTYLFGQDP

For orientation: Ki means the dissociation constant of the complex between target and ligand, obtained from inhibition or displacement. Take `COc1cccc(CN2CCN(Cc3ccccc3)CC2)c1`: the Ki on Sigma 2 receptor was 108 nM; in assay [1], 0.39 nM. Further, in the assay on Mus musculus [2], the AD50 stood at 17 mg/kg.

For the compound `Clc1ccc(CN2CCN(Cc3ccccc3)CC2)cc1Cl`, the Ki on Sigma 2 receptor is 7.54 nM; in assay [1] it was 0.58 nM. Also, the AD50 result in the assay with Mus musculus [3] is “Agonist activity exacerbated the convulsive effects of cocaine”.

Regarding `Clc1ccc(CN2CCN(Cc3ccccc3)CC2)c(Cl)c1`, the Ki is 123 nM at Sigma 2 receptor and 7.6 nM in assay [1]. The AD50 with Mus musculus [2] came to 16 mg/kg.

`Clc1ccccc1CN1CCN(Cc2ccccc2)CC1`: the values for the Ki (at Sigma 2 receptor; in assay [1]) were 527 nM and 5.3 nM, respectively. The compound further displayed an AD50 with Mus musculus [2] of 15 mg/kg.

Regarding `COc1ccc(CN2CCN(Cc3ccccc3)CC2)cc1`, the Ki on Sigma 2 receptor stood at 161 nM; in assay [1], 0.47 nM. This compound also returned an AD50 in the assay with Mus musculus [2] of 27 mg/kg.

Regarding `CN(CCc1ccc(Cl)c(Cl)c1)CCN1CCCC1`, the affinity on Sigma 2 receptor, expressed as Ki, was 8 nM. The AD50 in the assay with Mus musculus [2] turned out to be 2 mg/kg.

In the case of `Clc1cccc(CN2CCN(Cc3ccccc3)CC2)c1`, the inhibition constant (Ki) was determined as 56.4 nM at Sigma 2 receptor and 0.46 nM in assay [1]. Moreover, the AD50 with Mus musculus [2] was 8 mg/kg.

With `Clc1ccc(CN2CCN(Cc3ccccc3)CC2)cc1`, the Ki at Sigma 2 receptor amounted to 187 nM; in assay [1], 1.4 nM. In addition, in the assay with Mus musculus [2], the AD50 was 29 mg/kg.

At Sigma 2 receptor, `c1ccc(CN2CCN(Cc3ccccc3)CC2)cc1` displayed a Ki of 1270 nM. In the assay on Mus musculus [2], this compound showed an AD50 of 23 mg/kg.
